Columns and labels:
Format in all cases: biochemical
[1] = target: Jarid1A (Homo sapiens (Human), UniProt P29375); experiment: Jarid1A in vitro enzyme inhibition assay (TR-FRET); settings: H3K4me3-biotin peptide
Experimental: (§1) This assay determines the ability of a test compound to inhibit Jarid1A, Jarid1B, JMJD2C, and JMJD2A demethylase activity.
The enzymatic assay of Jarid1A activity is based upon Time Resolved-Fluorescence Resonance Energy Transfer (TR-FRET) detection.
The assay reaction was initiated by the following: 2 μl of the mixture of 900 nM H3K4me3-biotin labeled peptide and 6 μM alpha-ketoglutaric acid with 2 μl of 11-point serial diluted inhibitor in 3% DMSO was added to each well of plate, followed by the addition of 2 μl of 3 nM Jarid1A to initiate the reaction. The reaction mixture was incubated at room temperature for 30 minutes, and terminated by the addition of 6 μl of 5 mM EDTA in LANCE detection buffer containing 50 nM Phycolink Streptavidin-allophycocyanin and 2 nM Europium-anti-H3K4me1-2 antibody.
(§2) The ability of the compounds disclosed herein to inhibit demethylase activity was quantified and the respective IC50 value was determined.

[2] = target: JMJD2C (Homo sapiens (Human), UniProt Q9H3R0); experiment: JMJD2C in vitro enzyme inhibition assay (TR-FRET); settings: TR-FRET, H3K9me3-biotin peptide; read-out: IC50 JNJD2C
Experimental: as §1
Reaction product was determined quantitatively by TR-FRET after the addition of detection reagent Phycolink Streptavidin-allophycocyanin (Prozyme) and Europium-anti-di-methylated histone H3 lysine 9 (H3K9me2) antibody (PerkinElmer) in the presence of 5 mM EDTA in LANCE detection buffer (PerkinElmer) at a final concentration of 50 nM and 1 nM, respectively.
The assay reaction was initiated by the following: 2 μl of the mixture of 900 nM H3K9me3-biotin labeled peptide and 6 μM alpha-ketoglutaric acid with 2 μl of 11-point serial diluted inhibitor in 3% DMSO were added to each well of the plate, followed by the addition of 2 μl of 0.9 nM JMJD2C to initiate the reaction. The reaction mixture was incubated at room temperature for 30 minutes, and terminated by the addition of 6 μl of 5 mM EDTA in LANCE detection buffer containing 100 nM Phycolink Streptavidin-allophycocyanin and 2 nM Europium-anti-H3K9me2 antibody.
as §2

[3] = target: Jarid1B (Homo sapiens (Human), UniProt Q9UGL1); experiment: Jarid1B in vitro enzyme inhibition assay (TR-FRET); settings: TR-FRET, H3K4me3-biotin peptide; read-out: IC50 Jarid1B
Experimental: as §1
The reaction mixture was incubated at room temperature for 30 minutes, and terminated by the addition of 6 μl of 5 mM EDTA in LANCE detection buffer containing 50 nM Phycolink Streptavidin-allophycocyanin and 2 nM Europium-anti-H3K4me1-2 antibody.
as §2

Sequence of Jarid1B (Q9UGL1 2-751): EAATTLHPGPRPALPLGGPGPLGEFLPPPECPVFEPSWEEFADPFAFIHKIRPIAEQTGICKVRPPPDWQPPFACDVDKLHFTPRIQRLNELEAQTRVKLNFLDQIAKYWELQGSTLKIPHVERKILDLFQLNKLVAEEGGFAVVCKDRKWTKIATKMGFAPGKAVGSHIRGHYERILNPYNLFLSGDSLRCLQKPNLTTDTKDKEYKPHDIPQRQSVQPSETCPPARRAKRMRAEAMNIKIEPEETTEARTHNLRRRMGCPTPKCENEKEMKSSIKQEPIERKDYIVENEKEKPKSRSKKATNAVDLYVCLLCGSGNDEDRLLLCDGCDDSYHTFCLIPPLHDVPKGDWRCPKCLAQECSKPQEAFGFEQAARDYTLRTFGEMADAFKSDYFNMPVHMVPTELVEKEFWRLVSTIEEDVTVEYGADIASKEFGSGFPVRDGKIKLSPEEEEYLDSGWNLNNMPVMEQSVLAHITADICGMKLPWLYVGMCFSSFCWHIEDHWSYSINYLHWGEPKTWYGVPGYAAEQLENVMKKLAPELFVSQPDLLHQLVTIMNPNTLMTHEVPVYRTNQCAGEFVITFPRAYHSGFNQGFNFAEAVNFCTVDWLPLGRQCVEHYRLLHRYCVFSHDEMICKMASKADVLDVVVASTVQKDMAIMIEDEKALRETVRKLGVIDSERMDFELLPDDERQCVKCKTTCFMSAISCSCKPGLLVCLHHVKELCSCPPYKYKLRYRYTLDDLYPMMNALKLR
Sequence of Jarid1A (P29375 1-1090): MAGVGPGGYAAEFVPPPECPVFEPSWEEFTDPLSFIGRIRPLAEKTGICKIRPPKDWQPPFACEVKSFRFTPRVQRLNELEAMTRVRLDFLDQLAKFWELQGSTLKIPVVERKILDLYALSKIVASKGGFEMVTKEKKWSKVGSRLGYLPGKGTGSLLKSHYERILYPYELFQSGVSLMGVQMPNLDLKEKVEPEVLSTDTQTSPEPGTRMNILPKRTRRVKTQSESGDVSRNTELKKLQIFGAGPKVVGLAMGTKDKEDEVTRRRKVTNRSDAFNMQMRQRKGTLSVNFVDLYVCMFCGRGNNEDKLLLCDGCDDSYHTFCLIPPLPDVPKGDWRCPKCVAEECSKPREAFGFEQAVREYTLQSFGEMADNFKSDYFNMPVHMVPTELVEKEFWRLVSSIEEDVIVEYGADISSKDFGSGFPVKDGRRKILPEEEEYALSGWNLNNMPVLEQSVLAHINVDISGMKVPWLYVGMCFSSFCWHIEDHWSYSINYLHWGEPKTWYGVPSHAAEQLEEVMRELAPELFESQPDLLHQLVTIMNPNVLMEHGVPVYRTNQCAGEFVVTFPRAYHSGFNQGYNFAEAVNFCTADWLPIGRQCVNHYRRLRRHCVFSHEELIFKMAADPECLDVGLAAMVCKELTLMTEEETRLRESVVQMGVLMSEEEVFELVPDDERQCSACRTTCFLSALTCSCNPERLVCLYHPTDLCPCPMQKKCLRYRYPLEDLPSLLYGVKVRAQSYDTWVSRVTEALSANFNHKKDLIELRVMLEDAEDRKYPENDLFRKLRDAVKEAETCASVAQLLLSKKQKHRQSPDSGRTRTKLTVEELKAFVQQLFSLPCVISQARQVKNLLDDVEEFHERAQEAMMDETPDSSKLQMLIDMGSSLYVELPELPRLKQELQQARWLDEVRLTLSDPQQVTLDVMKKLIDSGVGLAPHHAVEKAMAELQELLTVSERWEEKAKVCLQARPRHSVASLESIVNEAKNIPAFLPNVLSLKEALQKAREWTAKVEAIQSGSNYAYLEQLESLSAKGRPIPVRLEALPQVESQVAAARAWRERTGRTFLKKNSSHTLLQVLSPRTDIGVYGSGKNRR
Sequence of JMJD2C (Q9H3R0 2-372): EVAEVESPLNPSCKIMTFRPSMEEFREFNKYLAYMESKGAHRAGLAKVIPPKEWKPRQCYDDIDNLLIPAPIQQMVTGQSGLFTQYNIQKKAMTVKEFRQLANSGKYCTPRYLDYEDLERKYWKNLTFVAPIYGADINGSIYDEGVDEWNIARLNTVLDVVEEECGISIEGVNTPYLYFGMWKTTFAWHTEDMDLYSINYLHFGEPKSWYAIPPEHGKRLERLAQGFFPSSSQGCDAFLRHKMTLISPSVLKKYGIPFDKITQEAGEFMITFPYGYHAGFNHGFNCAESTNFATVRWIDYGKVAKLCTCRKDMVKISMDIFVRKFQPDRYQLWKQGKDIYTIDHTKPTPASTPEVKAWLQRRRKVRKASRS

IC50 [1] [nM] | IC50 [2] [nM] | IC50 [3] [nM] | Molecule
100 to 1000 | < 100 | 100 to 1000 | O=C(O)c1ccnc2cc(CC3CCCCC3)[nH]c12 [Example 54, 2-(cyclohexylmethyl)-1H-pyrrolo[3,2-b]pyridine-7-carboxylic acid]
> 10000 | > 10000 | > 10000 | CCC(O)c1cc2nccc(C(=O)OC)c2[nH]1 (racemic) [Example 25, (±)-methyl 2-(1-hydroxypropyl)-1H-pyrrolo[3,2-b]pyridine-7-carboxylate]
> 10000 | > 10000 | > 10000 | COC(=O)c1ccnc2cc(-c3ccc(OC)cc3C)[nH]c12 [Example 15, methyl 2-(4-methoxy-2-methylphenyl)-1H-pyrrolo[3,2-b]pyridine-7-carboxylate]
< 100 | < 100 | < 100 | Cc1cccc(C(O)c2cc3nccc(C(=O)O)c3[nH]2)c1 (racemic) [Example 22, (±)-2-[hydroxy-(3-methylphenyl)methyl]-1H-pyrrolo[3,2-b]pyridine-7-carboxylic acid]
> 10000 | > 10000 | > 10000 | COC(=O)c1ccnc2cc(C(C)O)[nH]c12 (racemic) [Example 17, (±)-methyl 2-(1-hydroxyethyl)-1H-pyrrolo[3,2-b]pyridine-7-carboxylate]
100 to 1000 | 100 to 1000 | 100 to 1000 | CC(c1ccc(F)cc1)c1cc2nccc(C(=O)O)c2[nH]1 (centres unmarked) [Example 110, 2-[1-(4-fluorophenyl)ethyl]-1H-pyrrolo[3,2-b]pyridine-7-carboxylic acid]
> 10000 | > 10000 | > 10000 | COC(=O)c1ccnc2cc(C(C)(C)O)[nH]c12 [Example 4, methyl 2-(2-hydroxypropan-2-yl)-1H-pyrrolo[3,2-b]pyridine-7-carboxylate]
100 to 1000 | 100 to 1000 | 100 to 1000 | O=C(O)c1ccnc2cc(CO)[nH]c12 [Example 10, 2-(hydroxymethyl)-1H-pyrrolo[3,2-b]pyridine-7-carboxylic acid]
> 10000 | > 10000 | > 10000 | COC(=O)c1ccnc2cc(C3CCCC3)[nH]c12 [Example 28, methyl 2-cyclopentyl-1H-pyrrolo[3,2-b]pyridine-7-carboxylate]
100 to 1000 | < 100 | 100 to 1000 | CC(C)(O)c1cc2nccc(C(=O)O)c2[nH]1 [Example 5, 2-(2-hydroxypropan-2-yl)-1H-pyrrolo[3,2-b]pyridine-7-carboxylic acid]
100 to 1000 | < 100 | 100 to 1000 | CC(O)c1cc2nccc(C(=O)O)c2[nH]1 (racemic) [Example 18, (±)-2-(1-hydroxyethyl)-1H-pyrrolo[3,2-b]pyridine-7-carboxylic acid]
100 to 1000 | < 100 | 100 to 1000 | N#CCCc1cc2nccc(C(=O)O)c2[nH]1 [Example 58, 2-(2-cyanoethyl)-1H-pyrrolo[3,2-b]pyridine-7-carboxylic acid]
< 100 | < 100 | < 100 | O=C(O)c1ccnc2cc(C3(O)CCCC3)[nH]c12 [Example 27, 2-(1-hydroxycyclopentyl)-1H-pyrrolo[3,2-b]pyridine-7-carboxylic acid]
< 100 | < 100 | < 100 | O=C(O)c1ccnc2cc(C(O)C3CC3)[nH]c12 (racemic) [Example 33, (±)-2-[cyclopropyl(hydroxy)methyl]-1H-pyrrolo[3,2-b]pyridine-7-carboxylic acid]
< 100 | < 100 | < 100 | O=C(O)c1ccnc2cc(C(O)CC3CC3)[nH]c12 (racemic) [Example 38, (±)-2-(2-cyclopropyl-1-hydroxyethyl)-1H-pyrrolo[3,2-b]pyridine-7-carboxylic acid]
< 100 | 100 to 1000 | < 100 | CCCC(Oc1ccccc1)c1cc2nccc(C(=O)O)c2[nH]1 (racemic) [Example 85, (±)-2-(1-phenoxybutyl)-1H-pyrrolo[3,2-b]pyridine-7-carboxylic acid]
100 to 1000 | 100 to 1000 | < 100 | COc1ccc(OCc2cc3nccc(C(=O)O)c3[nH]2)cc1 [Example 93, 2-[(4-methoxyphenoxy)methyl]-1H-pyrrolo[3,2-b]pyridine-7-carboxylic acid]

More lines, now with the values behind:

Molecule | IC50 [1] [nM] | IC50 [2] [nM] | IC50 [3] [nM]
O=C(O)c1ccnc2cc(-c3cc4ccccc4o3)[nH]c12 [Example 92, 2-(1-benzofuran-2-yl)-1H-pyrrolo[3,2-b]pyridine-7-carboxylic acid] | 100 to 1000 | 100 to 1000 | 100 to 1000
N#Cc1ccc(OCc2cc3nccc(C(=O)O)c3[nH]2)cc1 [Example 98, 2-[(4-cyanophenoxy)methyl]-1H-pyrrolo[3,2-b]pyridine-7-carboxylic acid] | < 100 | 100 to 1000 | 100 to 1000
O=C(O)c1ccnc2cc(COc3ccc4c(c3)CCO4)[nH]c12 [Example 76, 2-(2,3dihydro-1-benzofuran-5-yloxymethyl)-1H-pyrrolo[3,2-b]pyridine-7-carboxylic acid] | < 100 | 100 to 1000 | < 100
O=C(O)c1ccnc2cc(Cc3ccc(F)c(Cl)c3)[nH]c12 [Example 112, 2-(3-chloro-4-fluorobenzyl)-1H-pyrrolo[3,2-6]pyridine-7-carboxylic acid] | < 100 | < 100 | < 100
O=C(O)c1ccnc2cc(Cc3ccccc3Cl)[nH]c12 [Example 78, 2-[(2-chlorophenyl)methyl]-1H-pyrrolo[3,2-b]pyridine-7-carboxylic acid] | < 100 | < 100 | < 100
Cc1ccc(OCc2cc3nccc(C(=O)O)c3[nH]2)cc1 [Example 62, 2-[(4-methylphenoxy)methyl]-1H-pyrrolo[3,2-b]pyridine-7-carboxylic acid] | 100 to 1000 | 100 to 1000 | 100 to 1000
O=C(O)c1ccnc2cc(C(O)c3ccccc3)[nH]c12 (racemic) [Example 20, (±)-2-[hydroxy(phenyl)methyl]-1H-pyrrolo[3,2-b]pyridine-7-carboxylic acid] | < 100 | < 100 | < 100
O=C(O)c1ccnc2cc(COc3cc(F)cc(F)c3)[nH]c12 [Example 81, 2-[(3,5-difluorophenoxy)methyl]-1H-pyrrolo[3,2-b]pyridine-7-carboxylic acid] | < 100 | < 100 | < 100
O=C(O)c1ccnc2cc(CCc3ccccc3)[nH]c12 [Example 70, 2-(2-phenylethyl)-1H-pyrrolo[3,2-b]pyridine-7-carboxylic acid] | 100 to 1000 | < 100 | 100 to 1000
O=C(O)c1ccnc2cc(C(=O)N3CCCCC3)[nH]c12 [Example 109, 2-(piperidylcarbonyl)pyrrolo[3,2-b]pyridine-7-carboxylic acid] | 100 to 1000 | 100 to 1000 | 100 to 1000
O=C(O)c1ccnc2cc(C(=O)N3CCCC(c4ccccc4)C3)[nH]c12 (centres unmarked) [Example 120, 2-[(3-phenylpiperidyl)carbonyl]pyrrolo-[3,2-b]pyridine-7-carboxylic acid] | 100 to 1000 | 100 to 1000 | 100 to 1000
O=C(O)c1ccnc2cc(COc3cccc(F)c3)[nH]c12 [Example 79, 2-[(3-fluorophenoxy)methyl]-1H-pyrrolo[3,2-b]pyridine-7-carboxylic acid] | < 100 | < 100 | < 100
O=C(O)c1ccnc2cc(Cc3ccc(C(F)(F)F)cc3)[nH]c12 [Example 56, 2-[[4-(trifluoromethyl)phenyl]methyl]-1H-pyrrolo[3,2-b]pyridine-7-carboxylic acid] | 100 to 1000 | 100 to 1000 | 100 to 1000
(±)-methyl 2-(1-hydroxy-2-methylpropyl)-1H-pyrrolo[3,2-b]pyridine-7-carboxylate [Example 30] | 100 to 1000 | < 100 | < 100
O=C(O)c1ccnc2c(Cl)c[nH]c12 [Example 1, 3-chloro-1H-pyrrolo[3,2-b]pyridine-7-carboxylic acid] | 1000 to 10000 | 1000 to 10000 | > 10000

From patent US9738637B2, “Histone demethylase inhibitors” (Quanticel Pharmaceuticals, Inc., priority 2013, dated 2017)
